{"source": "patent US20100113599A1", "about": "“AMPHIPATHIC CARBOXYLATES FOR THE TREATMENT OF IMMUNE-RELATED DISORDERS” (Syndromex Ltd. c/o Yissum Research Development Company, of, priority 2007, published 2010)", "key": {"gp130 [1]": {"tested_on": "gp130", "assay": "gp130 protein levels in HepG2 cells (Western blot)", "type": "cell-based, human", "conditions": "200 μM for 17 and 24 h, LIF 20 ng/ml", "method": "MEDICA drugs inhibit LIF-induced STAT3 phosphorylation. HepG2 cells were incubated with M16αα (200 μM) for 17 and 24 h. At each time point LIF (20 ng/ml) was added for the last 20 minutes (for protein) or for the last 3 h (for mRNA). Western blots of cell lysates were reacted with anti gp130 and anti P-STAT3 (Y705) antibodies and normalized by β-actin.\nMEDICA drugs inhibit IL-6-induced STAT3 phosphorylation. HepG2 cells were incubated for 40 h with […] M16αα. IL-6 (20 ng/ml) was added for the last 15 h. Western blots of cell lysates were reacted, with anti GP-130, anti STAT3, anti P-STAT3 (Y705) and anti P-STAT3 (S727) antibodies and normalized by β-actin. Abbreviations: cont. (control), dim. (dimer), Tot. (total), mono. (monomer).\n(§1) The examined effect of MEDICA drugs on expression of APP, was further analyzed by analyzing the effect of M16αα on downstream elements in the signaling pathway leading to expression of APP. Signal Transducers and Activators of Transcription 3 (STAT3), is a transcription factor phosphorylated by JAK kinases in response to cytokine activation of a cell surface receptor tyrosine kinases. Cytokines that activate STAT3 include growth hormone, IL-6 family cytokines, Oncostatin, LIF, CNTF and G-CSF, Leptin and others. […]"}, "STAT3 [2]": {"tested_on": "STAT3", "assay": "IL-6-induced STAT3 phosphorylation in Hek293 kidney cells (Western blot)", "type": "cell-based", "conditions": "250 μM 9 h, serum free medium 0.2% Albumin, IL-6 20 ng/ml last 5.5 h", "method": "Hek293 cells were incubated for 9 h with M16αα (250 μM) in serum free medium containing 0.2% Albumin. IL-6 (20 ng/ml) was added during the last 5.5 h period. Western blots of cell lysates were reacted with anti gp130 and anti P-STAT3 (Y705) antibodies and normalized by β-actin. Abbreviations: cont. (control).\nas §1, with “others. As illustrated by FIG. 1, upon cytokine activation, the STAT3 proteins dimerize and are localized to the nucleus where they activate transcription of APP as well as of other cytokine-responsive genes coding for cell survival, growth and proliferation. Therefore, the inventors next examined whether the effect of MEDICA drugs on the expression of APP is a result of interfering with STAT3 transcription activity or whether MEDICA drugs are involved in a more upstream element of the transduction pathway such as the gp130 receptor.” for “others.”"}, "gp130 [3]": {"tested_on": "gp130", "assay": "Overexpressed gp130 protein levels in transfected Hek293 cells (Western blot)", "type": "cell-based", "conditions": "Hek293 transfected with gp130 expression vector; 200 mM M16αα 9 h, 20 h after transfection", "method": "Hek293 cells were transfected with an expression vector for gp130. Following 20 h M16αα ([…]) was added for 9 h. Western blots of cell lysates were reacted with anti gp130 antibodies and normalized by β-actin. Abbreviations: cont. (control).\nIn order to examine the mode of action of M16αα in reducing gp130 protein levels, Hek293 cells were transfected with an expression vector for the gp130 protein. Following 20 h after transfection, M16αα ([…]) was added for 9 h. Western blots of cells lysates were reacted with anti-gp130 antibodies and normalized by β-actin. […] This effect was clearer when smaller amounts of plasmid were used for transfection (0.2 microgram)."}, "U266 cells [4]": {"tested_on": "U266 cells", "assay": "Growth of Multiple Myeloma U266 cells, Trypan Blue exclusion", "type": "cell-based", "conditions": "200 μM, day 6", "method": "Growth Suppression by M16αα of Multiple Myeloma (MM) cells. MM cells were incubated in RPMI 1640 medium in the presence of added M16αα as indicated. Cell number was determined daily by Trypan Blue exclusion.\nThe inhibitory effect of MEDICA drugs on colon tumor cell proliferation, presumably via activation of apoptosis, encouraged the inventors to further investigate the potential beneficial effect of these compounds on other malignancies. The inventors therefore next examined the effect of the MEDICA drugs using the Multiple myeloma model. U-266 and RPMI-8226 cell lines served as cell models for MM. MM cells were incubated in RPMI 1640 medium in the presence of M16αα as indicated. Cell number was determined daily by Trypan Blue exclusion assay. […] It should be noted that generally, these cells were more sensitive even to lower concentrations of M16αα."}, "STAT3 [5]": {"tested_on": "STAT3", "assay": "STAT3 phosphorylation in MM U266 cells (Western blot)", "type": "cell-based", "conditions": "200 μM, RPMI 1640, 10% FCS", "method": "(§2) U266 cells were cultured with 200 μM M16αα for time periods as indicated, lysed, Western blotted and reacted with anti STAT3, p-STAT3 (Y705), PARP or Bcl-xL antibodies.\n(§3) To examine the possibility that the inhibitory effect of M16αα, on Multiple Myeloma may be mediated by enhancement of pro apoptotic mechanism and induction of cell cycle arrest, U266 cells were cultured with 200 μM M16αα in RPMI 1640 medium with 10% FCS for time periods as indicated, lysed, Western blotted and reacted with anti STAT3, p-STAT3 (Y705), PARP or Bcl-xL and Bcl-2 as indicated."}, "U266 cells [6]": {"tested_on": "U266 cells", "assay": "Apoptosis markers (PARP, Bcl-2, Bcl-xL) in MM U266 cells (Western blot)", "type": "cell-based", "conditions": "200 μM", "method": "as §2, §3"}, "STAT3, GP130": {"tested_on": "STAT3, GP130", "assay": "STAT3 activation and GP130 in stimulated spleen cells of treated EAE mice (Western blot)", "type": "in vivo", "conditions": "EAE mice 60 mg/kg/day 12 days by gavage", "method": "To further investigate the preventive potential of MEDICA drugs, and specifically of M16αα on EAE model, the effect of these drugs on different pathways involving activation of the immune system have been next examined. Therefore, female mice were treated with M16αα (60 mg/kg/day) or vehicle (1% CMC, the control group) for 12 days by gavage. On the third day EAE has been induced by injection of the MOG35-55 peptide. Nine days following MOG35-55 peptide immunization, mice were anesthesized and sacrificed. Spleenocytes were prepared and were stimulated in vitro with either MOG (100 μg/ml) or LPS (50 μg/ml) and the activation of STAT3 was analyzed by Western blot using anti p-STAT3 (Y705) and anti GP130 antibodies. Liver was immediately frozen in liquid nitrogen and kept at −70 until used for protein and RNA preparation. Total RNA was prepared and analyzed by real time PCR for SAP, SAA, α-fibrinogen and IL-6 gene expression."}}}
{"smiles": "CC(C)(CCCCCCCCCCCCC(C)(C)C(=O)O)C(=O)O", "note": "[M16αα, 2,2,15,15-tetramethyl-hexadecanedioic acid]", "values": [{"measurement": "gp130 protein levels", "setting": "gp130 [1]", "value": "significantly reduced"}, {"measurement": "IL-6-induced phosphorylation of STAT3 Y705", "setting": "STAT3 [2]", "value": "Inhibition"}, {"measurement": "gp130 protein levels (overexpressed)", "setting": "gp130 [3]", "value": "clear reduction"}, {"measurement": "cell proliferation", "setting": "U266 cells [4]", "value": "complete inhibition"}, {"measurement": "STAT3 phosphorylation (p-STAT3 Y705)", "setting": "STAT3 [5]", "value": "clear reduction"}, {"measurement": "anti-apoptotic markers (Bcl-2, Bcl-xL)", "setting": "U266 cells [6]", "value": "concomitant decrease"}, {"measurement": "cleavage of PARP", "setting": "U266 cells [6]; compared to control cells", "value": "enhancement"}, {"measurement": "LPS-induced STAT3 (p-STAT3 Y705) in spleen cells", "setting": "STAT3, GP130; spleenocytes stimulated in vitro with LPS 50 μg/ml", "value": "not the LPS-induced STAT3 is suppressed"}, {"measurement": "MOG-induced STAT3 (p-STAT3 Y705) in spleen cells", "setting": "STAT3, GP130; spleenocytes stimulated in vitro with MOG 100 μg/ml", "value": "suppressed"}]}
